From patent publication US20250084056A1, “SUBSTITUTED OXOISOINDOLINYL PIPERIDINE-2,6-DIONE COMPOUNDS” (BRISTOL-MYERS SQUIBB COMPANY, priority 2023, published 2025)
pIC50: −log10 of the molar value.

Assays:
Type in all cases: cell-based
GSPT1 = GSPT1 (Homo sapiens, UniProt P15170+Q96SW2); assay: GSPT1 Cellular Degradation Assay (DF15-GSPT1-ePL); parameters: expressed in transfected cells; details: DF15-GSPT1-ePL cells, 20 hours
Outline: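 DC50 and Dmax were derived from chemiluminescence, with 75% response set by the reference compound at […]. Readout was ePL enzyme-fragment complementation in a DF15 line expressing chimeric GSPT1. Cells were exposed to compound for 20 h at 37 °C in RPMI 1640 with 10% FBS, cooled 30 min, then lysed with substrate for 60 min.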

Cyclin E1 = Cyclin E1 (Homo sapiens, UniProt P24864+Q96SW2); assay: Cyclin E1 Cellular Degradation Assay (MSD); parameters: endogenous in cells; host or cells: OVCAR3; details: for DC50 / Dmax: Cyclin E1 cellular degradation; for Dmax: maximum degradation; for Ratio of GSPT1 DC50/Cyclin E1 DC50: selectivity for degradation of Cyclin E1 over GSPT1
Outline: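 Cyclin E1 remaining after 24 h compound exposure of OVCAR3 cells was quantified in lysates by electrochemiluminescent MSD sandwich assay. DC50 (50% response concentration) and Dmax (maximum response) were calculated, with 110% response set by a reference compound at […].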

Phospho-Rb (Ser807/811) = assay: Phospho-Retinoblastoma (pRB) Cellular Assay; details: Homo sapiens, OVCAR-3, NIH OVCAR3 cells, 24 hours; for pIC50: concentration giving 50% response; for Emax: maximum response, reference compound at 10 μM = 100%, read-out: pRB Ymax
Outline: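 Phospho-Rb (Ser807/811) kit read-out on EnVision after lysis (≥4 h, room temperature, dark) of OVCAR3 cells exposed to compound dilutions for 24 h. IC50 and maximum response Ymax are relative to a 10 μM reference compound defining 100%.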

GSPT1, sequence (P15170 whole entry, the tested form may be a part): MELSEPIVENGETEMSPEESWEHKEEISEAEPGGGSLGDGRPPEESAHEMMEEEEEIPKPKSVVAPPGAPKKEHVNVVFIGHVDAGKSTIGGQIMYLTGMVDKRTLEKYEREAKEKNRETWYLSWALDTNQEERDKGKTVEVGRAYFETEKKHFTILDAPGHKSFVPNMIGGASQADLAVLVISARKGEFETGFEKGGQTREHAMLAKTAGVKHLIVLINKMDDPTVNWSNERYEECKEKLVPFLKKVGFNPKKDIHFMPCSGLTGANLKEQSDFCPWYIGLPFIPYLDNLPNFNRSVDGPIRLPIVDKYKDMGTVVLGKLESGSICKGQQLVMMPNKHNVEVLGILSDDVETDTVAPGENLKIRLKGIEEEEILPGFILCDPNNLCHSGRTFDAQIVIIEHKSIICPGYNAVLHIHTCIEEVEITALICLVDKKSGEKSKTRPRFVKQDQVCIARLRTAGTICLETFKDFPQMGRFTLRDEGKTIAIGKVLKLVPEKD
GSPT1, sequence (Q96SW2 whole entry, the tested form may be a part): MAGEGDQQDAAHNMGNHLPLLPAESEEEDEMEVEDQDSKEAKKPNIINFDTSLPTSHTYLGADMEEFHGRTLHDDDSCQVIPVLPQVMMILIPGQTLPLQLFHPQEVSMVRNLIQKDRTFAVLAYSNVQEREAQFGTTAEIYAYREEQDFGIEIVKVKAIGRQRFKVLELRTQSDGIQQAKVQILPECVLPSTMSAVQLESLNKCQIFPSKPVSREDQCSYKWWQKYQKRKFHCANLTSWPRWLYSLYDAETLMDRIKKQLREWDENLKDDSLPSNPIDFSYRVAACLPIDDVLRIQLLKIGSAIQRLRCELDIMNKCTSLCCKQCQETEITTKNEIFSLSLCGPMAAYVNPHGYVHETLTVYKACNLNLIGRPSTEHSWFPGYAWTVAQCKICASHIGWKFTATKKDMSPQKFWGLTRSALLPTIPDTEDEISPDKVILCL
GSPT1, sequence (Q16531 whole entry partner, the tested form may be a part): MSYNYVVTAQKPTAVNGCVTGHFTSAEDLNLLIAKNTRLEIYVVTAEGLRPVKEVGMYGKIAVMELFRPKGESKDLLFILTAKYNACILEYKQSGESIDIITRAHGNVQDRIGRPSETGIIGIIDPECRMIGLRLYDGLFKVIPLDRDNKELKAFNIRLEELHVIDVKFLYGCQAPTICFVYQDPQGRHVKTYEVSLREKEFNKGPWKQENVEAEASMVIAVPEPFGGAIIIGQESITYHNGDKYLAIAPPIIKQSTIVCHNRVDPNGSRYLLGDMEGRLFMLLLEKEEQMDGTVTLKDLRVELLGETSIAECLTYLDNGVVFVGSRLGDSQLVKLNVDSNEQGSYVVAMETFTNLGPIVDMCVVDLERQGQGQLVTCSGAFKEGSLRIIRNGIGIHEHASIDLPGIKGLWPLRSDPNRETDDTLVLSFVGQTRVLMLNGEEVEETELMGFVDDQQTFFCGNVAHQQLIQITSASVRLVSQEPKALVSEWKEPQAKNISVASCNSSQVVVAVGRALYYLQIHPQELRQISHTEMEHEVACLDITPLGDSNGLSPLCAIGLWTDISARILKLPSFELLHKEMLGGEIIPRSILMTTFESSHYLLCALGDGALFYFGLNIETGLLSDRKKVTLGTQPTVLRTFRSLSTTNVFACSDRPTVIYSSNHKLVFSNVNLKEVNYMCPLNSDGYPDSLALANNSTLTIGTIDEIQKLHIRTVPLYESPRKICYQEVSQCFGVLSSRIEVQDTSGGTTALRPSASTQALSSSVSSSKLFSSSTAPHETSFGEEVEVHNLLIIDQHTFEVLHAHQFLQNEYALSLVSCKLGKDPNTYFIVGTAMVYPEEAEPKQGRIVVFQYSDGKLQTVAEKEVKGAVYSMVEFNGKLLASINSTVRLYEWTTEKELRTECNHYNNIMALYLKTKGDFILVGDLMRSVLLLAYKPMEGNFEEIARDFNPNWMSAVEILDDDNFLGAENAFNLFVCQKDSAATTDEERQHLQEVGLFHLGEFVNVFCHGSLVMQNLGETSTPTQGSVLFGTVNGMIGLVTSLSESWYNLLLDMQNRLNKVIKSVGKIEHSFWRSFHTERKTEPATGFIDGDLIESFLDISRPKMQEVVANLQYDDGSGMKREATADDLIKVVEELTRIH
Cyclin E1, sequence (P24864 whole entry): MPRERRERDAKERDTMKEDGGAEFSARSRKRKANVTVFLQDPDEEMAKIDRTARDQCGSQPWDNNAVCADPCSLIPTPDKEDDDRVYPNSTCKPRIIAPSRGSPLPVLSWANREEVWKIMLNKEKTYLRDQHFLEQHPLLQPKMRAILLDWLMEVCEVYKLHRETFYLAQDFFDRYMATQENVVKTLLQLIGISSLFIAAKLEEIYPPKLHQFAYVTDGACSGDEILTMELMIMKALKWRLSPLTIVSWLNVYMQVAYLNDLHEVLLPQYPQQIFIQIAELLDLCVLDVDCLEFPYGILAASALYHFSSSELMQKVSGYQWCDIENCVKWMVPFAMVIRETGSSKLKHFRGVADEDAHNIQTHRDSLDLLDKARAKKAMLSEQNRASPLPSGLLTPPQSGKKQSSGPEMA
Cyclin E1, sequence (Q96SW2 whole entry): as the sequence (Q96SW2 whole entry, the tested form may be a part) above
Cyclin E1, sequence (Q16531 whole entry partner): as the sequence (Q16531 whole entry partner, the tested form may be a part) above

SMILES	DC50 (GSPT1) [nM]	Dmax (GSPT1) [%]	DC50 (Cyclin E1) [nM]	Dmax (Cyclin E1) [%]	Ratio of GSPT1 DC50/Cyclin E1 DC50 (Cyclin E1)	pIC50 (Phospho-Rb (Ser807/811))	Emax (Phospho-Rb (Ser807/811)) [%]
CC(C)(O)COc1c(COC(=O)Nc2ccc(Oc3cc(F)c(F)c(F)c3)cc2F)ccc2c1C(=O)N(C1CCC(=O)NC1=O)C2 (centres unmarked) [Example 165, [2-(2,6-dioxopiperidin-3-yl)-4-(2-hydroxy-2-methylpropoxy)-3-oxo-2,3-dihydro-1H-isoindol-5-yl]methyl N-[2-fluoro-4-(3,4,5-trifluorophenoxy)phenyl]carbamate]	> 14000	10	42	107	>332	7.55	133
O=C1CCC(N2Cc3ccc(COC(=O)Nc4ccc(Oc5ccc(F)c(F)c5)cc4)c(O[C@H]4CC[C@H](O)CC4)c3C2=O)C(=O)N1 (stereo partly drawn) [Example 166, [2-(2,6-dioxopiperidin-3-yl)-3-oxo-4-{[(1R,4R)-4-hydroxycyclohexyl]oxy}-2,3-dihydro-1H-isoindol-5-yl]methyl N-[4-(3,4-difluorophenoxy)phenyl]carbamate]	> 14000	27	87	108	>160	7.02	134
O=C1CCC(N2Cc3ccc(COC(=O)Nc4ccc(Oc5ccc(F)c(F)c5)cc4)c(O[C@H]4CC[C@@H](O)CC4)c3C2=O)C(=O)N1 (stereo partly drawn) [Example 167, [2-(2,6-dioxopiperidin-3-yl)-3-oxo-4-{[(1S,4S)-4-hydroxycyclohexyl]oxy}-2,3-dihydro-1H-isoindol-5-yl]methyl N-[4-(3,4-difluorophenoxy)phenyl]carbamate]	> 14000	6	13	111	>1,042	8.10	148
COCCOc1c(COC(=O)Nc2ccc(Oc3ccc(F)c(F)c3)cc2)ccc2c1C(=O)N(C1CCC(=O)NC1=O)C2 (centres unmarked) [Example 168, [2-(2,6-dioxopiperidin-3-yl)-4-(2-methoxyethoxy)-3-oxo-2,3-dihydro-1H-isoindol-5-yl]methyl N-[4-(3,4-difluorophenoxy)phenyl]carbamate]	> 14000	33	62	110	>226	7.72	118
COCCOc1c(COC(=O)Nc2ccc(Oc3ccc(F)c(F)c3)cc2F)ccc2c1C(=O)N(C1CCC(=O)NC1=O)C2 (centres unmarked) [Example 169, [2-(2,6-dioxopiperidin-3-yl)-4-(2-methoxyethoxy)-3-oxo-2,3-dihydro-1H-isoindol-5-yl]methyl N-[4-(3,4-difluorophenoxy)-2-fluorophenyl]carbamate]	> 14000	7	88	104	>159	7.44	120
O=C1CCC(N2Cc3ccc(COC(=O)Nc4ccc(Oc5ccc(F)c(F)c5)cc4)c(OC4CCCOCC4)c3C2=O)C(=O)N1 (centres unmarked) [Example 170, [2-(2,6-dioxopiperidin-3-yl)-4-(oxepan-4-yloxy)-3-oxo-2,3-dihydro-1H-isoindol-5-yl]methyl N-[4-(3,4-difluorophenoxy)phenyl]carbamate]	> 14000	0	15	109	>930	7.28	142
O=C1CCC(N2Cc3ccc(COC(=O)Nc4ccc(Oc5ccccc5)cc4)c(Oc4cccnc4)c3C2=O)C(=O)N1 (centres unmarked) [Example 171, [2-(2,6-dioxopiperidin-3-yl)-3-oxo-4-(pyridin-3-yloxy)-2,3-dihydro-1H-isoindol-5-yl]methyl N-(4-phenoxyphenyl)carbamate]	> 14000	0	170	107	>82	6.80	130
O=C1CCC(N2Cc3ccc(COC(=O)Nc4ccc(Oc5ccc(F)c(F)c5)cc4)c(Oc4cccnc4)c3C2=O)C(=O)N1 (centres unmarked) [Example 172, [2-(2,6-dioxopiperidin-3-yl)-3-oxo-4-(pyridin-3-yloxy)-2,3-dihydro-1H-isoindol-5-yl]methyl N-[4-(3,4-difluorophenoxy)phenyl]carbamate]	> 14000	6	79	100	>177	6.93	120
